# Assay results as given in patent US8901309B2, “Fused triazoles for the treatment or prophylaxis of mild cognitive impairment” (Takeda Pharmaceutical Company Limited, priority 2010, dated 2014).
# Test system: Aβ42 in hippocampi of C57BL/6J mice
# Assay: Hippocampal soluble Aβ42 ELISA in mice after oral administration
# Type: in vivo, mouse
# Conditions: 10 mg/kg orally, hippocampi isolated 3 hours after administration, soluble Aβ42 by ELISA, 10 mg/kg
# Protocol: Measurement of Amyloid β Production Inhibition Rate Using Primary Nerve Cell
# C57BL/6J mice (7-10 weeks old) were purchased from CLEA Japan Inc. Mice were housed in groups and kept on a 12h-light; 12h-dark schedule. All mice were given ad libitum access to food and water.
# Each test compound was reconstituted in solubilization buffer ([DMSO (Wako)]: [10% Cremophor (Nakarai)+30% polyethylene glycol 400 (Wako)+60% 2 mol/L Citrate buffer (Wako)]=1:9) and orally administrated at 10 mg/kg.
# Hippocampi was isolated from animals, 3 hours after test compounds were orally administrated. Hippocampi were homogenized in ice-cold Tris-extraction buffer (50 mmol/L Tris-HCl, pH 7.2, 200 mmol/L sodium chloride, 2% protease-free bovine serum albumin, and 0.01% sodium merthiolate) containing protease inhibitor cocktails (Roche, Switzerland). After centrifugation at 15,000 rpm for 15 minutes, the supernatants were subjected to two-site sandwich ELISA to measure amount of soluble Aβ. Aβ42 was quantitated by two-site sandwich ELISA using BNT77, which recognizes Aβ11-28, as a capture antibody and BC05-HRP as a detector antibody, respectively.
row,SMILES,Aβ42 production inhibitory activity (% inhibition)
1,"COc1nc(-c2nnc3n2CCCC3(Oc2ccc(F)c(C(F)(F)F)c2)C(C)(C)O)ccc1-n1cnc(C)c1 (stereo not drawn) [Example 2, 2-{8-[4-fluoro-3-(trifluoromethyl)phenoxy]-3-[6-methoxy-5-(4-methyl-1H-imidazol-1-yl)pyridin-2-yl]-5,6,7,8-tetrahydro[1,2,4]triazolo[4,3-a]pyridin-8-yl}propan-2-ol]",48 % inhibition
2,"COc1cc(-c2nnc3n2CCCC3(Oc2ccc(F)c(F)c2)C(C)(C)O)ccc1-c1cnc(C)o1 (stereo not drawn) [Example 92, 2-{8-(3,4-difluorophenoxy)-3-[3-methoxy-4-(2-methyl-1,3-oxazol-5-yl)phenyl]-5,6,7,8-tetrahydro[1,2,4]triazolo[4,3-a]pyridin-8-yl}propan-2-ol]",32 % inhibition
3,"COc1cc(-c2nnc3n2CCCC3(Oc2ccc(C(F)(F)F)cc2)C(C)(C)O)ccc1-c1cnc(C)o1 (stereo not drawn) [Example 104, 2-{3-[3-methoxy-4-(2-methyl-1,3-oxazol-5-yl)phenyl]-8-[4-(trifluoromethyl)phenoxy]-5,6,7,8-tetrahydro[1,2,4]triazolo[4,3-a]pyridin-8-yl}propan-2-ol]",36 % inhibition
4,"COc1cc(-c2nnc3n2CCCC3(Oc2cccc(C(F)(F)F)c2)C(C)(C)O)ccc1-c1cnc(C)o1 (stereo not drawn) [Example 130, 2-{3-[3-methoxy-4-(2-methyl-1,3-oxazol-5-yl)phenyl]-8-[3-(trifluoromethyl)phenoxy]-5,6,7,8-tetrahydro[1,2,4]triazolo[4,3-a]pyridin-8-yl}propan-2-ol]",59 % inhibition
5,"COc1cc(-c2nnc3n2CCCC3(Oc2ccc(C(F)(F)F)cc2)C(C)(C)O)ccc1-c1cnc(C)o1 (stereo not drawn) [Example 132, 2-{3-[3-methoxy-4-(2-methyl-1,3-oxazol-5-yl)phenyl]-8-[4-(trifluoromethyl)phenoxy]-5,6,7,8-tetrahydro[1,2,4]triazolo[4,3-a]pyridin-8-yl}propan-2-ol]",58 % inhibition
6,"COc1cc(-c2nnc3n2CCCC3(Oc2cc(F)cc(F)c2)C(C)(C)O)ccc1-c1cnc(C)o1 (stereo not drawn) [Example 155, 2-{8-(3,5-difluorophenoxy)-3-[3-methoxy-4-(2-methyl-1,3-oxazol-5-yl)phenyl]-5,6,7,8-tetrahydro[1,2,4]triazolo[4,3-a]pyridin-8-yl}propan-2-ol]",56 % inhibition

# Same assay, conditions: Mus musculus, po, 3 h, 10 mg/kg orally, hippocampi isolated 3 hours after administration, soluble Aβ42 by ELISA, read-out: Aβ42 production inhibitory activity (% inhibition)
row,SMILES,inhibition in vivo at 10 mg/kg
1,"COc1nc(-c2nnc3n2CCCC3(Oc2ccc(Cl)c(F)c2)C(C)(C)O)ccc1-n1cnc(C)c1 (stereo not drawn) [Example 1, 2-{8-(4-chloro-3-fluorophenoxy)-3-[6-methoxy-5-(4-methyl-1H-imidazol-1-yl)pyridin-2-yl]-5,6,7,8-tetrahydro[1,2,4]triazolo[4,3-a]pyridin-8-yl}propan-2-ol]",40%
2,"COc1cc(-c2nnc3n2CCCC3(CC2CC2)c2ccc(F)c(F)c2)ccc1-c1cnc(C)o1 (stereo not drawn) [Example 21, optically active 8-(cyclopropylmethyl)-8-(3,4-difluorophenyl)-3-[3-methoxy-4-(2-methyl-1,3-oxazol-5-yl)phenyl]-5,6,7,8-tetrahydro[1,2,4]triazolo[4,3-a]pyridine]",39%
3,"COc1cc(-c2nnc3n2CCCC3(Oc2cc(F)c(F)c(F)c2)C(C)(C)O)ccc1-c1cnc(C)o1 (stereo not drawn) [Example 99, 2-{3-[3-methoxy-4-(2-methyl-1,3-oxazol-5-yl)phenyl]-8-(3,4,5-trifluorophenoxy)-5,6,7,8-tetrahydro[1,2,4]triazolo[4,3-a]pyridin-8-yl}propan-2-ol]",34%
4,"COc1cc(-c2nnc3n2CCCC3(Oc2cccc(C(F)(F)F)c2)C(C)(C)O)ccc1-c1cnc(C)o1 (stereo not drawn) [Example 103, 2-{3-[3-methoxy-4-(2-methyl-1,3-oxazol-5-yl)phenyl]-8-[3-(trifluoromethyl)phenoxy]-5,6,7,8-tetrahydro[1,2,4]triazolo[4,3-a]pyridin-8-yl}propan-2-ol]",42%
5,"COc1cc(-c2nnc3n2CCCC3(Oc2ccc(Cl)c(F)c2)C(C)(C)O)ccc1-c1cnc(C)o1 (stereo not drawn) [Example 111, 2-{8-(4-chloro-3-fluorophenoxy)-3-[3-methoxy-4-(2-methyl-1,3-oxazol-5-yl)phenyl]-5,6,7,8-tetrahydro[1,2,4]triazolo[4,3-a]pyridin-8-yl}propan-2-ol]",46%
6,"CCC(O)(CC)C1(Oc2ccc(Cl)c(F)c2)CCCn2c(-c3ccc(-c4cnc(C)o4)c(OC)c3)nnc21 (stereo not drawn) [Example 120, 3-{8-(4-chloro-3-fluorophenoxy)-3-[3-methoxy-4-(2-methyl-1,3-oxazol-5-yl)phenyl]-5,6,7,8-tetrahydro[1,2,4]triazolo[4,3-a]pyridin-8-yl}pentan-3-ol]",21%
7,"COc1cc(-c2nnc3n2CCC[C@]3(Oc2cc(F)c(F)c(F)c2)C(C)(C)O)ccc1-c1cnc(C)o1 [Example 122, 2-{(8R)-3-[3-methoxy-4-(2-methyl-1,3-oxazol-5-yl)phenyl]-8-(3,4,5-trifluorophenoxy)-5,6,7,8-tetrahydro[1,2,4]triazolo[4,3-a]pyridin-8-yl}propan-2-ol]",54%
8,"COc1cc(-c2nnc3n2CCCC3(Oc2ccc(F)c(F)c2)C(C)(C)O)ccc1-c1cnc(C)o1 (stereo not drawn) [Example 124, 2-{8-(3,4-difluorophenoxy)-3-[3-methoxy-4-(2-methyl-1,3-oxazol-5-yl)phenyl]-5,6,7,8-tetrahydro[1,2,4]triazolo[4,3-a]pyridin-8-yl}propan-2-ol]",41%
9,"COc1cc(-c2nnc3n2CCCC3(COc2ccc(Cl)cc2)C(C)(C)O)ccc1-c1cnc(C)o1 (stereo not drawn) [Example 127, 2-{8-[(4-chlorophenoxy)methyl]-3-[3-methoxy-4-(2-methyl-1,3-oxazol-5-yl)phenyl]-5,6,7,8-tetrahydro[1,2,4]triazolo[4,3-a]pyridin-8-yl}propan-2-ol]",21%
10,"COc1nc(-c2nnc3n2CCCC3(Oc2cc(F)c(F)c(F)c2)C(C)(C)O)ccc1-n1cnc(C)c1 (stereo not drawn) [Example 134, 2-{3-[6-methoxy-5-(4-methyl-1H-imidazol-1-yl)pyridin-2-yl]-8-(3,4,5-trifluorophenoxy)-5,6,7,8-tetrahydro[1,2,4]triazolo[4,3-a]pyridin-8-yl}propan-2-ol]",31%
11,"COc1cc(-c2nnc3n2CCCC3(Oc2ccc(Cl)c(C(F)(F)F)c2)C(C)(C)O)ccc1-n1cnc(C)n1 (stereo not drawn) [Example 139, 2-{8-[4-chloro-3-(trifluoromethyl)phenoxy]-3-[3-methoxy-4-(3-methyl-1H-1,2,4-triazol-1-yl)phenyl]-5,6,7,8-tetrahydro[1,2,4]triazolo[4,3-a]pyridin-8-yl}propan-2-ol]",22%
12,"COc1cc(-c2nnc3n2CCCC3(Oc2cc(F)cc(F)c2)C(C)(C)O)ccc1-c1cnc(C)o1 (stereo not drawn) [Example 141, 2-{8-(3,5-difluorophenoxy)-3-[3-methoxy-4-(2-methyl-1,3-oxazol-5-yl)phenyl]-5,6,7,8-tetrahydro[1,2,4]triazolo[4,3-a]pyridin-8-yl}propan-2-ol]",46%
13,"COc1cc(-c2nnc3n2CCCC3(Oc2cc(F)c(F)c(F)c2)C(C)(C)O)ccc1-c1cnn(C)c1 (stereo not drawn) [Example 144, 2-{3-[3-methoxy-4-(1-methyl-1H-pyrazol-4-yl)phenyl]-8-(3,4,5-trifluorophenoxy)-5,6,7,8-tetrahydro[1,2,4]triazolo[4,3-a]pyridin-8-yl}propan-2-ol]",31%
14,"COc1nc(-c2nnc3n2CCC[C@]3(Oc2cc(F)c(F)c(F)c2)C(C)(C)O)ccc1-n1cnc(C)c1 [Example 152, 2-{(8R)-3-[6-methoxy-5-(4-methyl-1H-imidazol-1-yl)pyridin-2-yl]-8-(3,4,5-trifluorophenoxy)-5,6,7,8-tetrahydro[1,2,4]triazolo[4,3-a]pyridin-8-yl}propan-2-ol]",57%
15,"COc1nc(-c2nnc3n2CCCC3(Oc2ccc(F)c(C(F)(F)F)c2)C(C)(C)O)ccc1-n1cnc(C)c1 (stereo not drawn) [Example 157, 2-{8-[4-fluoro-3-(trifluoromethyl)phenoxy]-3-[6-methoxy-5-(4-methyl-1H-imidazol-1-yl)pyridin-2-yl]-5,6,7,8-tetrahydro[1,2,4]triazolo[4,3-a]pyridin-8-yl}propan-2-ol]",61%
16,"COc1cc(-c2nnc3n2CCCC3(Oc2cc(F)c(F)c(F)c2)C(C)(C)O)c(F)cc1-c1cnc(C)o1 (stereo not drawn) [Example 162, 2-{3-[2-fluoro-5-methoxy-4-(2-methyl-1,3-oxazol-5-yl)phenyl]-8-(3,4,5-trifluorophenoxy)-5,6,7,8-tetrahydro[1,2,4]triazolo[4,3-a]pyridin-8-yl}propan-2-ol]",26%
17,"COc1nc(-c2nnc3n2CCCC3(Oc2cc(F)c(F)c(F)c2)C(C)(C)O)ccc1-c1cnc(C)o1 (stereo not drawn) [Example 172, 2-{3-[6-methoxy-5-(2-methyl-1,3-oxazol-5-yl)pyridin-2-yl]-8-(3,4,5-trifluorophenoxy)-5,6,7,8-tetrahydro[1,2,4]triazolo[4,3-a]pyridin-8-yl}propan-2-ol]",35%
18,"COc1cc(-c2nnn3c2CCCC3(Oc2cc(F)c(F)c(F)c2)C(C)(C)O)ccc1-c1cnc(C)o1 (stereo not drawn) [Example 186, 2-{3-[3-methoxy-4-(2-methyl-1,3-oxazol-5-yl)phenyl]-7-(3,4,5-trifluorophenoxy)-4,5,6,7-tetrahydro[1,2,3]triazolo[1,5-a]pyridin-7-yl}propan-2-ol]",22%
